The values below come from patent US20230248665A1, “COMPOSITION COMPRISING DIMETHYLCHALCONE DERIVATIVE FOR PREVENTION OR TREATMENT OF METABOLIC DISEASE” (SEOUL NATIONAL UNIVERSITY R & DB FOUNDATION, priority 2020, published 2023).

Format in all cases: cell-based
In assay [1] the test system is AMPK. Nature of the assay: AMPK activity, western blotting of phosphorylated AMPK in C2C12 myotubes. Particulars: FIG. 2. The text has this:
AMP-activated protein kinase (AMPK) is a member of serine/threonine kinases, and is an enzyme known as an energy sensor which senses the intracellular energy state. Moreover, the activation of AMPK is known to show the effect of increasing glucose transport and promoting fatty acid oxidation in skeletal muscle, and to […] the synthesis of cholesterol and triglycerides, decrease lipogenesis, and increase fatty acid oxidation, and ketogenesis, and the like in the liver. Further, the activation of AMPK is known to reduce adipogenesis in adipose tissue and increase insulin secretion in pancreatic beta cells, thereby being able to be applied to the treatment of various metabolic diseases. Therefore, western blotting was performed in order to confirm the effect of the DMC derivatives of Example 1 on AMPK activity. More specifically, the C2C12 myoblasts were primarily cultured in DMEM supplemented with 10% fetal bovine serum, and then cultured in DMEM supplemented with 2% horse serum for 5 days to differentiate into myotubes. Then, the differentiated myotubes were treated with 10 µM DMC derivative and cultured for 24 hours, and then cells were collected, and disrupted using an ultrasonic disperser to obtain proteins. Next, western blotting was performed using a pAMPK antibody (Cell Signaling Technology) and an AMPK antibody (Cell Signaling Technology) to measure the amount of phosphorylated AMPK. 1 mM AICAR was used as a positive control, and 20 µg of protein was used for each sample in western blotting.
Background: Immunoblotting shows a protein as a band on a membrane.

Assay [2] relates to rat aortic smooth muscle cells. The assay is described as follows: PDGF-induced migration of vascular smooth muscle cells. Particulars: 1 µM with 10 ng/mL PDGF; FIG. 4. The protocol:
Proliferation and migration of vascular smooth muscle cells are known to be essential steps in the progression of vascular diseases such as restenosis and arteriosclerosis. Therefore, in order to confirm the effect of the DMC derivatives of Example 1 on the migration of rat aortic smooth muscle cells, smooth muscle cells were treated with 10 ng/mL platelet-derived growth factor (PDGF) and 1 µM DMC derivative and cultured. Then, the degree of cell migration was measured.

Assay [3] has as its system human kidney proximal tubule epithelial cell (HK-2) cell line. Nature of the assay: Antioxidant effect, intracellular reactive oxygen species (DCF-DA) in HK-2 kidney cells after H2O2. The settings on record: 1 µM for 18 hours, then 500 µM H2O2 for 6 hours, FIG. 6. The protocol: First, the antioxidant effect was checked using kidney cells. More specifically, a human kidney proximal tubule epithelial cell (HK-2) cell line was treated with 1 µM DMC derivative and cultured for 18 hours. Then, 500 µM H2O2 was added to the culture medium and the culture medium was incubated for 6 hours. Thereafter, the amount of intracellular reactive oxygen species (iROS) was measured using dichlorohydro-fluorescein diacetate (DCF-DA).

Consider `NC(=O)c1ncn([C@@H]2O[C@H](CO)[C@@H](O)[C@H]2O)c1N` [AICAR, reference compound], for which the “activity of AMPK (phosphorylated AMPK)” value in assay [1] (positive control 1 mM AICAR) was “increased the activity of AMPK”.

In the case of `COc1c(C)c(O)c(C)c(O)c1C(=O)/C=C/c1ccc(C(C)C)cc1` [Chemical Formula 4, 1-(2′,4′-dihydroxy-6′-methoxy-3′,5′-dimethylphenyl)-3-(4-isopropylphenyl)-2-propen-1-one], the “migration of vascular smooth muscle cells” value (shortened to “migration”) in assay [2] was “similarly or more effectively suppressed cell migration by PDGF than AICAR and Rosi, which were used as positive controls, and DMC”. For the same compound, the “amount of intracellular reactive oxygen species (ROS)” value (“amount” below) in assay [3] is reported as “effectively reduced ROS”.

For the compound `COc1ccc(/C=C/C(=O)c2c(O)c(C)c(O)c(C)c2OC)cc1` [Chemical Formula 5, 1-(2′,4′-dihydroxy-6′-methoxy-3′,5′-dimethylphenyl)-3-(4-methoxyphenyl)-2-propen-1-one], the “activity of AMPK (phosphorylated AMPK)” value in assay [1] (10 µM, 24 hours) is given as “increased the activity of AMPK similarly to or more effectively than the positive controls”.

Regarding `COc1c(C)c(OC)c(C(=O)/C=C/c2ccc(F)cc2)c(OC)c1C` [Chemical Formula 16, 1-(3′,5′-dimethyl-2′,4′,6′-trimethoxyphenyl)-3-(4-fluorophenyl)-2-propen-1-one], in assay [2], the “migration” value was “similarly or more effectively suppressed cell migration by PDGF than AICAR and Rosi, which were used as positive controls, and DMC”. For the same compound, the “amount” value in assay [3] is listed as “effectively reduced ROS”.

Take `COc1c(C)c(OC)c(C(=O)/C=C/c2ccccc2)c(OC)c1C` [Chemical Formula 17, 1-(3′,5′-dimethyl-2′,4′,6′-trimethoxyphenyl)-3-phenyl-2-propen-1-one]: the “migration” value in assay [2] is “similarly or more effectively suppressed cell migration by PDGF than AICAR and Rosi, which were used as positive controls, and DMC”. The “amount” value in assay [3] was “effectively reduced ROS”.

With `COc1c(C)c(OC)c(C(=O)/C=C/c2ccc(C)cc2)c(OC)c1C` [Chemical Formula 18, 1-(3′,5′-dimethyl-2′,4′,6′-trimethoxyphenyl)-3-(4-tolyl)-2-propen-1-one], in assay [2], the “migration” value was “similarly or more effectively suppressed cell migration by PDGF than AICAR and Rosi, which were used as positive controls, and DMC”.

For the compound `COc1c(C)c(OC)c(C(=O)/C=C/c2ccc(C(C)C)cc2)c(OC)c1C` [Chemical Formula 19, 1-(3′,5′-dimethyl-2′,4′,6′-trimethoxyphenyl)-3-(4-isopropylphenyl)-2-propen-1-one], in assay [1] (10 µM, 24 hours), the “activity of AMPK (phosphorylated AMPK)” value was “increased the activity of AMPK similarly to or more effectively than the positive controls”. The “migration” value in assay [2] was “similarly or more effectively suppressed cell migration by PDGF than AICAR and Rosi, which were used as positive controls, and DMC”.

Consider `COCOc1ccc(/C=C/C(=O)c2c(OC)c(C)c(OC)c(C)c2OC)cc1` [Chemical Formula 20, 1-(3′,5′-dimethyl-2′,4′,6′-trimethoxyphenyl)-3-(4-methoxymethoxyphenyl)-2-propen-1-one], for which the “activity of AMPK (phosphorylated AMPK)” value in assay [1] (10 µM, 24 hours) is on record as “increased the activity of AMPK similarly to or more effectively than the positive controls”. Moreover, in assay [2], the “migration” value is “similarly or more effectively suppressed cell migration by PDGF than AICAR and Rosi, which were used as positive controls, and DMC”. For the same compound, the “amount” value in assay [3] is reported as “effectively reduced ROS”.

For the compound `COc1ccc(/C=C/C(=O)c2c(OC)c(C)c(OC)c(C)c2OC)cc1` [Chemical Formula 21, 1-(3′,5′-dimethyl-2′,4′,6′-trimethoxyphenyl)-3-(4-methoxyphenyl)-2-propen-1-one], in assay [1] (10 µM, 24 hours), the “activity of AMPK (phosphorylated AMPK)” value is “increased the activity of AMPK similarly to or more effectively than the positive controls”. In addition, the “migration” value in assay [2] is “similarly or more effectively suppressed cell migration by PDGF than AICAR and Rosi, which were used as positive controls, and DMC”.

`COc1c(C)c(OC)c(C(=O)/C=C/c2ccc(O)cc2)c(OC)c1C` [Chemical Formula 22, 1-(3′,5′-dimethyl-2′,4′,6′-trimethoxyphenyl)-3-(4-hydroxyphenyl)-2-propen-1-one]: the “activity of AMPK (phosphorylated AMPK)” value in assay [1] (10 µM, 24 hours) is “increased the activity of AMPK similarly to or more effectively than the positive controls”. Besides, the “migration” value in assay [2] is “similarly or more effectively suppressed cell migration by PDGF than AICAR and Rosi, which were used as positive controls, and DMC”.

On to `COCOc1c(C)c(O)c(C(=O)/C=C/c2ccc(C)cc2)c(OC)c1C` [Chemical Formula 26, 1-(2′-hydroxy-4′-(methoxymethoxy)-6′-methoxy-3′,5′-dimethylphenyl)-3-(4-tolyl)-2-propen-1-one], for which, in assay [1] (10 µM, 24 hours), the “activity of AMPK (phosphorylated AMPK)” value is reported as “increased the activity of AMPK similarly to or more effectively than the positive controls”. In assay [2], the “migration” value was “similarly or more effectively suppressed cell migration by PDGF than AICAR and Rosi, which were used as positive controls, and DMC”.

Regarding `COCOc1c(C)c(O)c(C(=O)/C=C/c2ccc(C(C)C)cc2)c(OC)c1C` [Chemical Formula 27, 1-(2′-hydroxy-4′-(methoxymethoxy)-6′-methoxy-3′,5′-dimethylphenyl)-3-(4-isopropylphenyl)-2-propen-1-one], the “activity of AMPK (phosphorylated AMPK)” value in assay [1] (10 µM, 24 hours) is given as “increased the activity of AMPK similarly to or more effectively than the positive controls”. Also, the “migration” value in assay [2] was “similarly or more effectively suppressed cell migration by PDGF than AICAR and Rosi, which were used as positive controls, and DMC”.

For `COCOc1ccc(/C=C/C(=O)c2c(O)c(C)c(OCOC)c(C)c2OC)cc1` [Chemical Formula 28, 1-(2′-hydroxy-4′-(methoxymethoxy)-6′-methoxy-3′,5′-dimethylphenyl)-3-(4-methoxymethoxyphenyl)-2-propen-1-one], the “activity of AMPK (phosphorylated AMPK)” value in assay [1] (10 µM, 24 hours) is recorded as “increased the activity of AMPK similarly to or more effectively than the positive controls”. Besides, in assay [2], the “migration” value was “similarly or more effectively suppressed cell migration by PDGF than AICAR and Rosi, which were used as positive controls, and DMC”.

With `COCOc1c(C)c(O)c(C(=O)/C=C/c2ccc(OC)cc2)c(OC)c1C` [Chemical Formula 29, 1-(2′-hydroxy-4′-(methoxymethoxy)-6′-methoxy-3′,5′-dimethylphenyl)-3-(4-methoxyphenyl)-2-propen-1-one], in assay [1] (10 µM, 24 hours), the “activity of AMPK (phosphorylated AMPK)” value is recorded as “increased the activity of AMPK similarly to or more effectively than the positive controls”. In assay [2], the “migration” value is “similarly or more effectively suppressed cell migration by PDGF than AICAR and Rosi, which were used as positive controls, and DMC”.

With `COc1c(C)c(O)c(C)c(O)c1C(=O)/C=C/c1cccc(F)c1` [Chemical Formula 32, 1-(2′,4′-dihydroxy-6′-methoxy-3′,5′-dimethylphenyl)-3-(3-fluorophenyl)-2-propen-1-one], the “activity of AMPK (phosphorylated AMPK)” value in assay [1] (10 µM, 24 hours) is reported as “increased the activity of AMPK similarly to or more effectively than the positive controls”.

As for `COCOc1c(C)c(O)c(C(=O)/C=C/c2ccccc2F)c(OC)c1C` [Chemical Formula 34, 1-(2′-hydroxy-4′-(methoxymethoxy)-6′-methoxy-3′,5′-dimethylphenyl)-3-(2-fluorophenyl)-2-propen-1-one], the “migration” value in assay [2] was “similarly or more effectively suppressed cell migration by PDGF than AICAR and Rosi, which were used as positive controls, and DMC”.

For the compound `COc1c(C)c(O)c(C)c(O)c1C(=O)/C=C/c1ccccc1Cl` [Chemical Formula 37, 1-(2′,4′-dihydroxy-6′-methoxy-3′,5′-dimethylphenyl)-3-(2-chlorophenyl)-2-propen-1-one], the “activity of AMPK (phosphorylated AMPK)” value in assay [1] (10 µM, 24 hours) is recorded as “increased the activity of AMPK similarly to or more effectively than the positive controls”. In addition, in assay [2], the “migration” value was “similarly or more effectively suppressed cell migration by PDGF than AICAR and Rosi, which were used as positive controls, and DMC”.

In the case of `COc1c(C)c(O)c(C)c(O)c1C(=O)/C=C/c1ccccc1` [DMC, 2′,4′-dihydroxy-6′-methoxy-3′,5′-dimethylchalcone, reference compound], the “activity of AMPK (phosphorylated AMPK)” value in assay [1] (10 µM, 24 hours) is given as “increased the activity of AMPK”.
